Results on one molecule are retold here after BindingDB's records for doi:10.1016/j.ejmech.2017.07.016 (South Dakota State University, 2017).

The assay can be described thus: Antagonist activity at human CRFR1 expressed in HEK293 cells assessed as inhibition of sauvagine-induced cAMP accumulation by measuring sauvagine EC50 at 1 uM after 30 mins (Rvb = 0.203 nM).

With `CCCCN(CC)c1nc(C)nc2c1sc(=N)n2-c1c(C)cc(C)cc1C`, the EC50 (usually the concentration giving half of the maximal effect) was determined as 1.1 nM.
